According to patent US6555569B2, “Use of heteroaryl substituted N-(indole-2-carbonyl-) amides for treatment of infection” (Pfizer Inc., priority 2000, dated 2003):
In brackets after ≈: the same amount, converted by molar mass.

How the values were obtained:
C. pneumoniae = C. pneumoniae protocol that treats HEp-G2 cells with cycloheximide; assay type: cell-based, Chlamydia pneumoniae; conditions: cycloheximide 1 μg/mL
Chlamydia pneumoniae [1] = experiment: Chlamydia pneumoniae infection of HEp-G2 cells, Protocol 2 (compound added 15 h after challenge); assay type: cell-based; conditions: for MIC: Chlamydia pneumoniae, Protocol 2, compound added 15 h after challenge of HEp-G2 cells
Experimental: (§1) Protocol 1 was performed in 96-well flat-bottom microtiter plates. Each well contained 100 μL of 10^6 HEp-G2 cells/ml in standard medium that had been incubated for 24 h at 37° C. in 5% CO2. Compound stocks were prepared in dimethylsulfoxide, diluted in two-fold serial dilutions, and added to each well as 10 μL aliquots. Each compound concentration was assayed in triplicate. Elementary bodies (chlamydial stock) were diluted to contain 2×10^4inclusion-forming units (ifu) per milliliter and 90 μL was added to each well. Infection was allowed to proceed for 72 h at 37° C. in 5% CO2, after which the cells were fixed and stained with genus-reactive anti-LPS antibody. The use of a fluorescein (FITC)-conjugated secondary antibody allowed the number of inclusion-containing cells to be identified via inverted fluorescent microscopy. The minimum inhibitory concentration (MIC) was defined as the lowest concentration of compound that inhibited the formation of inclusions. The minimal bactericidal concentration (MBC) was defined as the lowest concentration of compound that prevented the formation of inclusions after the compound had been removed by the addition of fresh medium and the cultures had been incubated for a further 48 h. Procedures for growth and preparation of C. pneumoniae and HEp-G2 cells are described in Kalayoglu, M. V., et al., J. Infect. Dis., 1999, 180:780-790. Methodology for detecting inclusions using an direct fluorescent antibody technique is found in Byrne, G. I., et al. J. Infect. Dis., 1993, 168:415-420.
Protocol 2 was nearly identical to protocol 1 except that compound was added 15 h after challenge of HEp-G2 cells with C. pneumoniae. This protocol helps distinguish compounds that interfere with latter stages of C. pneumoniae growth and replication.

Chlamydia pneumoniae [2] = experiment: Chlamydia pneumoniae infection of HEp-G2 cells, Protocol 1; assay type: cell-based; conditions: for MIC / MBC: Chlamydia pneumoniae, Protocol 1; for MIC: HEp-G2 cells, 72 h infection, lowest concentration that inhibited the formation of inclusions; for MBC: no inclusions after compound removed and further 48 h incubation; for activity against growth of C. pneumoniae in HEp-2 cells: as shown in Table 2
Experimental: as §1

MICs in a protocol that treats HEp-G2 cells with cycloheximide (C. pneumoniae) | MIC (Chlamydia pneumoniae [1]) | MIC (Chlamydia pneumoniae [2]) | Compound | MBC (Chlamydia pneumoniae [2]) | activity against growth of C. pneumoniae in HEp-2 cells (Chlamydia pneumoniae [2]) | interfering with the latter stage of pneumoniae growth and replication (Chlamydia pneumoniae [1]; comparison of compound 1 with compound 2)
did not differ | 50 µg/mL (≈ 126 µM) | 25 µg/mL (≈ 62.8 µM) | O=C(N[C@@H](Cc1ccccc1)C(=O)N1CC(O)C1)c1cc2cc(Cl)ccc2[nH]1 [Compound 2] | 25 µg/mL (≈ 62.8 µM) | exhibited activity | –
did not differ | 12.5 µg/mL (≈ 28.2 µM) | 12.5 µg/mL (≈ 28.2 µM) | O=C(N[C@@H](Cc1ccc(F)cc1)C(=O)N1CCC(O)CC1)c1cc2cc(Cl)ccc2[nH]1 [Compound 1] | 25 µg/mL (≈ 56.3 µM) | exhibited activity | superior to compound 2
